Experimental data from patent US20240270715A1, “INHIBITORS OF TRANSGLUTAMINASES” (ZEDIRA GMBH, priority 2021, published 2024).

How the values were obtained:
[1] = Log D by shake flask method (octanol / PBS pH 7.4, HPLC); assay type: physicochemical; settings: octanol / PBS pH 7.4, shake flask; read-out: logD
Experimental: In order to classify the inventive compounds according to their lipophilicity, Log D values (distribution coefficient) were determined by means of the well-established shake flask method, measuring the partition of a compound between an octanol and phosphate-buffered saline (PBS, pH 7.4) by HPLC.
Compounds with a moderate lipophilicity (Log D values from 0 to 3) are usually advantaged for oral absorption, being in balance between solubility and permeability. However, sophisticated formulation of a compound might improve oral bioavailability for highly lipophilic compounds.

[2] = target: T1, recombinant human transglutaminase 2 (Homo sapiens, UniProt P21980); experiment: Transglutaminase assay: incorporation of dansylcadaverine into dimethylcasein (DCC-assay); assay type: biochemical; settings: recombinant human TG2 10 nM, dansylcadaverine/dimethylcasein; read-out: IC50 TG2
T1 sequence (P21980 1-687): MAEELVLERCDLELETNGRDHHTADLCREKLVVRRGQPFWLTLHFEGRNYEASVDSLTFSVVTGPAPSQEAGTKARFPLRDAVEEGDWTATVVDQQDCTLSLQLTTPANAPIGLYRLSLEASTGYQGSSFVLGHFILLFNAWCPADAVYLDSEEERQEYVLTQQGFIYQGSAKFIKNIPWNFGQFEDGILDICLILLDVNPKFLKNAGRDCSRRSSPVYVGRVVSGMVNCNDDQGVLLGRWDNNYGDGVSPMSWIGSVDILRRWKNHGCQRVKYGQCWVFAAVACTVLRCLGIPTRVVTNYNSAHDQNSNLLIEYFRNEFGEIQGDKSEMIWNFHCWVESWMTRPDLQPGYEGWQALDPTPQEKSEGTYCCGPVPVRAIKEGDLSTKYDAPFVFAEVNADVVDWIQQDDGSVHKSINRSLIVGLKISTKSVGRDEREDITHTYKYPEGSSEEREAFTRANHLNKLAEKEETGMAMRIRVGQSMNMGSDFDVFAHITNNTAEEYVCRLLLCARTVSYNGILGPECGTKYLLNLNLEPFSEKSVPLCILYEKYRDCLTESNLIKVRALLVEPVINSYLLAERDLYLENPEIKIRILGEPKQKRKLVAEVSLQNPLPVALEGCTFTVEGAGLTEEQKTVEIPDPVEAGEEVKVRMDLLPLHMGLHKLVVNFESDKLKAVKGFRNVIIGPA
Experimental: To illustrate the advantage of branched alkyl moieties over aromatic moieties, we refer to reference compounds Ref. 2 (ZED1227, U.S. Pat. No. 9,434,763 B2) and Ref. 3 (A8, ZED1047). Inhibition data were determined using the classical fluorescent transamidation assay (dansylcadaverine incorporation into methylated casein, DCC-assay) as described [Büchold, C.; Hils, M.; Gerlach, U.; Weber, J.; Pelzer, C.; Heil, A.; Aeschlimann, D.; Pasternack, R. Features of ZED1227: The First-In-Class Tissue Transglutaminase Inhibitor Undergoing Clinical Evaluation for the Treatment of Celiac Disease. Cells 2022, 11, 1667. https://doi.org/10.3390/cells11101667]. Casein is one of the best known high molecular weight (24 kDa) protein substrates for transglutaminases. Please note, the IC50 value of Ref. 3 (A8) published in U.S. Pat. No. 9,434,763 B2 cannot be compared to the present data, relying on a fluorogenic isopeptidase assay.
To this extent, inhibition data were determined using the classical fluorescent transamidation assay (dansylcadaverine incorporation into methylated casein, DCC-assay) as described in Büchold et al. [Büchold, C.; Hils, M.; Gerlach, U.; Weber, J.; Pelzer, C.; Heil, A.; Aeschlimann, D.; Pasternack, R. Features of ZED1227: The First-In-Class Tissue Transglutaminase Inhibitor Undergoing Clinical Evaluation for the Treatment of Celiac Disease. Cells 2022, 11, 1667. https://doi.org/10.3390/cells11101667]. Casein is one of the best known high molecular weight (24 kDa) protein substrates for transglutaminases. Inhibition data of the inventive compounds was compared with inhibition of compounds disclosed in U.S. Pat. No. 9,434,763 B2, particularly, compound A8, which is denoted herein as Reference 3. It is noteworthy that the IC50 values of compounds A8 published in U.S. Pat. No. 9,434,763 B2 and E16 from U.S. Pat. No. 11,072,634 B2 cannot be compared to the present data, relying on a fluorogenic isopeptidase assay.
For the determination of potency of inhibitors against tissue transglutaminase, the incorporation of dansylcadaverine into dimethylcasein (Zedira product T036, Lorand et al., Anal Biochem, 1971, 44:221-31) was measured using recombinant human transglutaminase 2 (Zedira Product T022).
The tissue transglutaminase is diluted in buffer (50 mM Tris-HCl, 7.5 mM CaCl2, 150 mM NaCl, pH=7.4). The final concentration of TG2 in the assay is 10 nM.
A 10 mM inhibitor stock solution is prepared in DMSO, and from this a serial 1:2-fold dilution series is prepared also in DMSO. Each of the initial dilutions is subsequently diluted 1:50-fold with buffer (50 mM Tris-HCl, 7.5 mM CaCl2, 150 mM NaCl, pH=7.4) to yield the final working dilutions containing 2% (v/v) DMSO. 15 μl of inhibitor working dilution are added per well of a 96 well microtiter plate. As control, 15 μl of a 2% (v/v) DMSO solution prepared using the buffer mentioned above are added per well.
Immediately before starting the assay, 600 μl transglutaminase working solution are added to 11.4 ml assay buffer (50 mM Tris-HCl, 10 mM CaCl2, 10 mM glutathione, 2.5% glycerol, 16.7 μM dansylcadaverine, 4 μM N,N-dimethylcasein, 200 mM NaCl, pH=8.0). 285 μl of this reaction mix are added per well containing the inhibitor.
Increase in fluorescence is measured using λex=330 nm and λemG=500 nm at […] for 30 min. A slope of the increase in fluorescence between 20 and 30 min is calculated for determination of the IC50 value (inhibitor concentration at which 50% of the initial activity is blocked).
Analysis of enzymatic activity is performed by calculation of the slope of an increase in fluorescence intensity. IC50 values are calculated by plotting the enzymatic activity (as percentage from control containing 2% DMSO instead of inhibitor) against the inhibitor concentration. IC50 is defined as the inhibitor concentration blocking 50% of initial enzyme activity.

[3] = Caco-2 permeability assay (CacoReady kit); assay type: in vitro ADME; settings: human
Experimental: Permeability coefficients (Papp values) were obtained from Caco-2 barrier studies predicting oral/intestinal bioavailability of the tested compounds. The assays were performed by using CacoReady™ ready-to-use kits from ReadyCell according to the manufacturers protocol.

| logD [1] | IC50 [2] [nM] | Papp [3] [×10⁻⁶ cm/s] | Compound |
| --- | --- | --- | --- |
| 3 to 5 | < 150 | 1 to 10 | CCNC(=O)C(=O)CC[C@H](NC(=O)c1cc2cccc(F)c2s1)C(=O)Nc1cccn(CC(=O)NC2C3CC4CC(C3)CC2C4)c1=O (stereo partly drawn) [Compound I-35, (S)-N1-ethyl-5-(7-fluorobenzo[b]thiophene-2-carboxamido)-N6-(1-(2-(2-adamantylamino)-2-oxoethyl)-2-oxo-1,2-dihydropyridin-3-yl)-2-oxohexanediamide] |
| 3 to 5 | < 150 | 1 to 10 | CCNC(=O)C(=O)CC[C@H](NC(=O)c1nc(Br)cs1)C(=O)Nc1cccn(CC(=O)NC2C3CC4CC(C3)CC2C4)c1=O (stereo partly drawn) [Compound I-50, (S)-2-(4-bromothiazole-2-carboxamido)-N6-ethyl-N1-(1-(2-(2-adamantylamino)-2-oxoethyl)-2-oxo-1,2-dihydropyridin-3-yl)-5-oxohexanediamide] |
| 3 to 5 | 150 to 600 | 1 to 10 | CCNC(=O)C(=O)CC[C@H](NC(=O)c1oc2ccccc2c1C)C(=O)Nc1cccn(CC(=O)N[C@H]2C[C@H]3CC[C@]2(C)C3(C)C)c1=O [Compound I-69, (S)-N1-ethyl-5-(3-methylbenzofuran-2-carboxamido)-2-oxo-N6-(2-oxo-1-(2-oxo-2-((1R,2S,4R)-1,7,7-trimethylbicyclo[2.2.1]heptan-2-ylamino)ethyl)-1,2-dihydropyridin-3-yl)hexanediamide] |
| 1 to 3 | < 150 | 1 to 10 | CCNC(=O)C(=O)CC[C@H](NC(=O)c1cc(C(=O)OC)cc([N+](=O)[O-])c1)C(=O)Nc1cccn(CC(=O)NC2(C(=O)OC)C3CC4CC(C3)CC2C4)c1=O (stereo partly drawn) [Compound I-64, (S)-methyl 3-(6-(ethylamino)-1-(1-(2-(methyl 2-aminoadamantane-2-carboxylate)-2-oxoethyl)-2-oxo-1,2-dihydropyridin-3-ylamino)-1,5,6-trioxohexan-2-ylcarbamoyl)-5-nitrobenzoate] |
| < 1 | 150 to 600 | < 1 | CCNC(=O)C(=O)CC[C@H](NC(=O)c1cncn1C)C(=O)Nc1cccn(CC(=O)NC23CC4CC(C2)CC(C(F)(F)F)(C4)C3)c1=O [Compound I-6, (S)-N1-ethyl-N6-(1-(2-(3-trifluoromethyladamantane-1-amino)-2-oxoethyl)-2-oxo-1,2-dihydropyridin-3-yl)-5-(1-methyl-1H-imidazole-5-carboxamido)-2-oxohexanediamide] |
| 1 to 3 | 600 to 3500 | < 1 | CCNC(=O)C(=O)CC[C@H](NC(=O)c1cn(C)cn1)C(=O)Nc1cccn(CC(=O)NC23CC4CC(C)(CC(C)(C4)C2)C3)c1=O [Compound I-22, (S)-N1-ethyl-N6-(1-(2-(3,5-dimethyladamantane-1-amino)-2-oxoethyl)-2-oxo-1,2-dihydropyridin-3-yl)-5-(1-methyl-1H-imidazole-4-carboxamido)-2-oxohexanediamide] |
| < 1 | 150 to 600 | < 1 | CCNC(=O)C(=O)CC[C@H](NC(=O)c1cc2ccc(N(C)C)cc2o1)C(=O)Nc1cccn(CC(=O)NC23CC(C2)C3)c1=O [Compound I-109, (S)-N1-(1-(2-(bicyclo[1.1.1]pentan-1-ylamino)-2-oxoethyl)-2-oxo-1,2-dihydropyridin-3-yl)-2-(6-(dimethylamino)benzofuran-2-carboxamido)-N6-ethyl-5-oxohexanediamide] |
| 3 to 5 | 600 to 3500 | 1 to 10 | CCNC(=O)C(=O)CC[C@H](NC(=O)c1cc(C#N)cn1C)C(=O)Nc1cccn(CCCC23CC4CC(CC(C4)C2)C3)c1=O [Compound I-86] |
| 1 to 3 | 150 to 600 | < 1 | CCNC(=O)C(=O)CC[C@H](NC(=O)c1ncn(C)n1)C(=O)Nc1cccn(CC(=O)N[C@@H]2C[C@@H]3C[C@H]([C@H]2C)C3(C)C)c1=O [Compound I-76, (S)-N1-ethyl-5-(1-methyl-1H-1,2,4-triazole-3-carboxamido)-2-oxo-N6-(2-oxo-1-(2-oxo-2-((1R,2R,3R,5S)-2,6,6-trimethylbicyclo[3.1.1]heptan-3-ylamino)ethyl)-1,2-dihydropyridin-3-yl)hexanediamide] |
| 1 to 3 | 150 to 600 | 1 to 10 | CCNC(=O)C(=O)CC[C@H](NC(=O)c1c[nH]c2ccccc12)C(=O)Nc1cccn(CC(=O)NC2C3CC4CC(C3)CC2C4)c1=O (stereo partly drawn) [Compound I-95, (S)-N1-ethyl-5-(1H-indole-3-carboxamido)-N6-(1-(2-(2-adamantylamino)-2-oxoethyl)-2-oxo-1,2-dihydropyridin-3-yl)-2-oxohexanediamide] |
| 3 to 5 | < 150 | 1 to 10 | CCNC(=O)C(=O)CC[C@H](NC(=O)c1[nH]c2ccccc2c1C)C(=O)Nc1cccn(CC(=O)NC2C3CC4CC(C3)CC2C4)c1=O (stereo partly drawn) [Compound I-37, (S)-N1-ethyl-N6-(1-(2-(2-adamantylamino)-2-oxoethyl)-2-oxo-1,2-dihydropyridin-3-yl)-5-(3-methyl-1H-indole-2-carboxamido)-2-oxohexanediamide] |
| < 1 | 150 to 600 | < 1 | CCNC(=O)C(=O)CC[C@H](NC(=O)c1ncns1)C(=O)Nc1cccn(CC(=O)NC23CC(C2)C3)c1=O [Compound I-118, (S)-N1-(1-(2-(bicyclo[1.1.1]pentan-1-ylamino)-2-oxoethyl)-2-oxo-1,2-dihydropyridin-3-yl)-N6-ethyl-5-oxo-2-(1,2,4-thiadiazole-5-carboxamido)hexanediamide] |
